Test results reported in patent publication US10799508B2, “Methods for treating cancer using HSP90 inhibitors” (AI Therapeutics, Inc., priority 2017, dated 2020).

Tests used:
[1] = system: IFN-γ-induced PD-L1 expression in SK-MEL-28 cells; experiment: 10-point dose response validation of IFN-γ-induced PD-L1 signal; format: cell-based, human; conditions: 48 h; for IFN-γ-induced PD-L1 signal: SK-MEL-28, 10-point dose response 9.8-5000 nM, FIG. 1A-D; for concentration required to inhibit IFN-γ-induced PD-L1 expression compared with concentration required to affect cell proliferation: SK-MEL-28, IFN-γ 50 ng/ml, FIG. 2A-E
Protocol: FIG. 1A-D. Validation dose response curves of HSP90 inhibitors tested in the original screen. A) CNF2024; B) PF04928473; C) tanespimycin; D) HSP-990. SK-MEL-28 cells treated with IFN-γ and with the indicated HSP90 inhibitor at different concentrations. Cells were assayed for cell viability (square, % viability on left axis) and PD-L1 expression (circle, Z-score right axis) at 48 h after treatment of IFN-γ and/or HSP90 inhibitors. Quadruplicate wells were used for determination of cell viability and PD-L1 expression. Average values were plotted. […] Lysates were probed with anti PD-L1 antibody.
(§1) FIG. 2A-E. Dose response curves of 5 additional HSP90 inhibitors. A) STA-9090, B) CUDC-305, C) MPC-3100, D) XL-888 and E) TAS-116. SK-MEL-28 cells treated with IFN-γ (50 ng/ml) and with the indicated HSP90 inhibitor at different concentrations. Cells were assayed for cell viability (square, % viability on left axis) and PD-L1 expression (circle, Z-score right axis) at 48 h after treatment of IFN-γ and/or HSP inhibitors. Quadruplicate wells were used for determination of cell viability and PD-L1 expression. Average values were plotted.
After assessment for viability, plates were then prepared for immunostaining. Briefly, 16% paraformaldehyde (Electron Microscopy Sciences) was added to each well to a final concentration of 4%, for 10 minutes at room temperature. Following this time, the fix was aspirated and cells were washed 3 times with PBS. Cells were blocked using blocking solution (1% bovine serum albumin in PBS) for 30 minutes. After this time, the blocking reagent was aspirated and immunostaining reagent added. The immunostaining reagent consisted of a biotin conjugated-PD-L1 antibody (eBioscience) diluted in blocking buffer. Plates were sealed and kept at 4 C overnight. The following day, plates were washed 3 times with PBS followed by addition of a streptavidin-luciferase fusion protein (Invivogen) diluted in blocking buffer, for 1 h at room temperature. After this step, the plates were washed 3 times with PBS. After the final wash, PBS was aspirated and 30 uL of QUANTI-Luc™ (Invivogen) was added per well. Plates were immediately read on a plate reader (Victor 3V plate reader, 0.1s) and luciferase activity measured.
The raw PD-L1 intensity (the luciferase readout) corresponding to drug screen plates was normalized to blank plates containing only IFN-γ-treated wells, and the resulting ratio was used for the calculation of Z-scores.
(§2) These 4 HSP90 inhibitors were validated using the same experimental protocol employed above (using the SK-MEL-28 cells +/−IFN-γ in 384 well plates), with the only exception to the original assay design was that each drug was now tested in a 10-point dose response assay where the concentration of drug tested was 9.8-5000 nM (2 fold serial dilution). Cells were seeded and treated in quadruplicate. Viability was assessed after 48 h of treatment of four HSP 90 inhibitors and prior to harvesting the cells for testing PD-L1 signal, as described above.

[2] = system: IFN-γ-induced PD-L1 expression in SK-MEL-28 cells; experiment: High-content primary screen for small molecules that reduce IFN-γ induced PD-L1 expression; format: cell-based, human; conditions: SK-MEL-28, IFN-γ 50 ng/ml, drugs at 40, 480 and 5000 nM, viability >75%
Protocol: SK-MEL-28 cells (melanoma cell line; […] Cells were expanded in MEM (Corning) containing 10% FBS (Sigma) and 2 mM L-Glutamine. Frozen stocks of cells were prepared for direct use in the high-throughput screening (HTS) assay. Cells were harvested, pelleted and then resuspended in 95% FBS & 5% DMSO at a concentration 1×10^7 cells/ml. One ml aliquots were rate frozen to −80° C. at a rate of 1 degree per minute. These stocks were then transferred to vapor phase liquid nitrogen for long term storage. For screening, frozen cell vials were quickly thawed with continuous agitation in a at 37° C. water bath then re-suspended in the assay media at room temperature and centrifuged at 1,000 rpm for 5 minutes. The resulting pellet was re-suspended in appropriate volume and counted using an automated cell counter and diluted accordingly. Using a manually curated library of approximately 2500 individual drugs (2000 approved drugs, 500 unapproved drugs), drugs from the source plate were transferred to the destination plates (384-well assay plates—Corning #3712) using an ECHO 550 liquid handler (Labcyte). SK-MEL-28 cells (1750 cells per well in 30 μL of media), treated with IFN-g (50 ng/ml final) were added to these pre-formatted plates using a Multidrop™ Combi reagent dispenser (Thermofisher). […] Plates were centrifuged at 800 rpm for one minute before being incubated in a 5% CO2 humidified incubator at 37° C. After assessment for viability, plates were then prepared for immunostaining. Briefly, 16% paraformaldehyde (Electron Microscopy Sciences) was added to each well to a final concentration of 4%, for 10 minutes at room temperature. Following this time, the fix was aspirated and cells were washed 3 times with PBS. […] After this time, the blocking reagent was aspirated and immunostaining reagent added. […] Plates were sealed and kept at 4 C overnight. […] After this step, the plates were washed 3 times with PBS. After the final wash, PBS was aspirated and 30 uL of QUANTI-Luc™ (Invivogen) was added per well.

[3] = alamarBlue cell viability; format: cell-based; conditions: human, SK-MEL-28 cells, SK-MEL-28, highest concentration tested (1000 nM), IFN-γ 50 ng/ml
Protocol: as §1
44 h later, cell viability was determined using alamarBlue™ cell viability reagent (Thermofisher), according to the manufacturers protocol. Briefly, 3 μL of alamarBlue™ reagent was added to each well and plates were incubated for a further 4 h. The plates were read on a Victor ^3V plate reader (Perkin Elmer). Viability for each drug was expressed as a percentage by comparing drug-treated cells and untreated control cells (Set to 100%).
as §2

[4] = system: PD-L1 cell surface expression in AML cell lines (PL-21, TUR, MOLM-14, MV-4-11); experiment: Flow cytometry of IFN-γ-induced PD-L1 cell surface expression in AML cells; format: cell-based, human; conditions: 24 hours
Protocol: FIG. 13A-D: MPC-0767 blocks IFN-γ-induced PD-L1 expression in AML cells. A) PL-21, B) TUR, C) MOLM-14, D) MV-4-11 cells treated with MPC-0767 (2 μM), IFN-γ (50 ng/ml) or IFN-γ+MPC-0767 for 24 h before cells were harvested for assessment of PD-L1 cell surface expression.
To ascertain whether MPC-0767 can block IFN-γ-induced PD-L1 expression in AML cells, four AML cell lines harboring WT FLT3 (n=2) or FLT3-ITD (n=2) were treated with human IFN-γ (50 ng/ml) alone, MPC-0767 (2 μM) alone or the combination for 24 hours. Cells were harvested to determine PD-L1 cell surface expression by flow cytometry. Cells were also stained with a viability stain to gate on viable cells and exclude any dead cells. As shown in FIG. 13A-D, all cell lines induced PD-L1 cell surface expression in response to IFN-γ treatment (6-25 fold).

[5] = system: MV-4-11, MOLM-16, TUR, U937, KMS-28, OCI-LY-19 and Z138 cell lines; experiment: Synergy of MPC-0767 and venetoclax versus basal BCL-2 abundance; format: cell-based, human; conditions: 72 hours, CellTiter-Glo
Protocol: FIG. 12: Cell lines representing acute myeloid leukemia, multiple myeloma, diffuse large B cell lymphoma and mantle cell lymphoma were assayed for basal abundance of BCL-2 (Y axis) and a high/low threshold is shown by dashed line. Cell line sensitivity to venetoclax after 72 hour treatment as assessed by CellTiter-Glo (X axis) is denoted by EC50 values shown in parentheses. Following drug combination treatment of MPC-0767 and venetoclax, determination of synergy is shown by bar graphs in black (synergy observed) or grey (no synergy observed).
After 72 hour treatment with the indicated drug combinations, cell viability was assessed using CellTiter-Glo. […] The absolute EC75 for each single agent and drug combination was calculated using the R package DRC (Ritz et al., Dose-Response Analysis Using R. PLoS One. 2015. 10(12):e0146021; R Core Team, A language and environment for statistical computing. R Foundation for Statistical Computing, Vienna, Austria. 2017). […]
To test whether BCL-2 abundance is predictive of the synergy between HSP90 inhibitors and venetoclax observed here, we analyzed BCL-2 abundance in cell lines representing acute myeloid leukemia (MV-4-11, MOLM-16, TUR and U937), multiple myeloma (KMS-28), diffuse large B cell lymphoma (OCI-LY-19) and mantle cell lymphoma (Z138) under basal conditions using flow cytometry. […]

COc1c(C)cnc(Cn2cnc3c(Cl)nc(N)nc32)c1C [CNF-2024]
IFN-γ-induced PD-L1 signal [1]: blocked | hit in the primary screen (reduction of IFN-γ-induced PD-L1 expression) [2]: identified as hits

CN(C)c1cc2c(cc1Sc1nc3c(N)nccc3n1CCNCC(C)(C)C)OCO2 [CUDC-305]
concentration required to inhibit IFN-γ-induced PD-L1 expression compared with concentration required to affect cell proliferation [1]: far lower | viability at 48 h, 1 µM [3]: > 80%

COc1cccc(-c2cc(F)ccc2[C@H]2Cc3nc(N)nc(C)c3C(=O)N2)n1 [HSP-990]
IFN-γ-induced PD-L1 signal [1]: blocked | hit in the primary screen (reduction of IFN-γ-induced PD-L1 expression) [2]: identified as hits

C[C@H](N)C(=O)O[C@@H](C)C(=O)N1CCC(CCn2c(Sc3cc4c(cc3Br)OCO4)nc3c(N)ncnc32)CC1 [MPC-0767]
basal PD-L1 cell surface expression ([4]; MPC-0767 2 μM alone, four AML cell lines): did not significantly reduce | reduction of IFN-γ-induced PD-L1 cell surface expression ([4]; MPC-0767 2 μM with IFN-γ 50 ng/ml, range over four AML cell lines): 43-83% | synergy with venetoclax ([5]; cell lines with high BCL-2 levels): observed in 4 out of 4 cell lines | synergy with venetoclax ([5]; three cell lines with low BCL-2 levels): no synergy was observed

CC1(C)CC(=O)c2c(C(F)(F)F)nn(-c3ccc(C(N)=O)c(N[C@H]4CC[C@H](O)CC4)c3)c2C1 [PF0498473]
IFN-γ-induced PD-L1 signal [1]: blocked | hit in the primary screen (reduction of IFN-γ-induced PD-L1 expression) [2]: identified as hits

CC(C)c1cc(-c2n[nH]c(=O)n2-c2ccc3c(ccn3C)c2)c(O)cc1O [STA-9090]
concentration required to inhibit IFN-γ-induced PD-L1 expression compared with concentration required to affect cell proliferation [1]: far lower | viability at 48 h, 1 µM [3]: > 80%

CCc1cc(C(N)=O)ccc1-n1nc(C(C)C)c2c(-n3cnc(-c4cnn(C)c4)c3)ccnc21 [TAS-116]
concentration required to inhibit IFN-γ-induced PD-L1 expression compared with concentration required to affect cell proliferation [1]: far lower | viability at 48 h, 1 µM [3]: > 80%

CC[C@@H](C)Nc1cc(C(=O)NC2CC3CCC(C2)N3c2ccc(C(=O)C3CC3)cn2)c(C)cc1C(N)=O (stereo partly drawn) [XL-888]
concentration required to inhibit IFN-γ-induced PD-L1 expression compared with concentration required to affect cell proliferation [1]: far lower | viability at 48 h, 1 µM [3]: > 80%

C=CCNC1=C2C[C@@H](C)C[C@H](OC)[C@H](O)[C@@H](C)/C=C(\C)[C@H](OC(N)=O)[C@@H](OC)/C=C\C=C(/C)C(=O)NC(=CC1=O)C2=O [tanespimycin]
IFN-γ-induced PD-L1 signal [1]: blocked | hit in the primary screen (reduction of IFN-γ-induced PD-L1 expression) [2]: identified as hits

B1: IFN-γ: human interferon-gamma used to induce PD-L1 (protein, UniProt P01579 24-161, looked up)
Interferon gamma: QDPYVKEAENLKKYFNAGHSDVADNGTLFLGILKNWKEESDRKIMQSQIVSFYFKLFKNFKDDQSIQKSVETIKEDMNVKFFNSNKKKRDDFEKLTNYSVTDLNVQRKAIHELIQVMAELSPAAKTGKRKRSQMLFRG
induction of PD-L1 cell surface expression ([4]; human IFN-γ 50 ng/ml alone, range over four AML cell lines): 6-25 fold
